Format in all cases: in vivo
One assay relates to Bemisia tabaci. The assay can be described thus: Example 32: bell peppers treated against Bemisia tabaci. Conditions: larvae on leaves, % a.i.: imidacloprid 0.02, I-9, I-2, I-11 0.0144. Here is the method:
In three replications, plots of a size of 10 m^2 with bell peppers of the cultivar “Italiano” are treated against Bemisia tabaci. The application is carried out using a motor-operated knapsack sprayer. Here, the active compounds Example (I-9) (240 SC), Example (I-2) (60 SC) and Example (I-11) (60 SC) and the commercial standard imidacloprid (200 SL) are applied at the stated application rates. Three applications at an interval of 14 or 15 days are carried out, at an application rate of 1000 or 1100 l of water/ha.
Evaluation is carried out 7, 14 and 22 days after the second treatment by rating the kill of the animals (larvae) on the leaves.

The subject of a further assay is Bemisia argentifolii. The assay can be described thus: Example 35: aubergines (F 100) treated against Bemisia argentifolii. The note with it: 7 d after last of three treatments, nymphs on leaves, % a.i.: imidacloprid 0.014, I-9, I-2, I-11 0.0144. Here is the method:
In three replications, plots of a size of 10 m^2 with aubergines of the cultivar “F 100” are treated against Bemisia argentifolii. The application is carried out using a knapsack sprayer operated with pressurized air. Here, the active compounds Example (I-9) (60 SC), Example (I-2) (60 SC) and Example (I-11) (60 SC) and the commercial standard imidacloprid (70 WG) are tested at the stated application rates. Three applications are carried out, at an interval or 7 or 8 days. The application rate is 1000 l of water/ha.
Evaluation is carried out 7 days after the last treatment by rating the kill of the nymphs on the leaves.

The next assay deals with Macrosiphum euphorbiae. The assay can be described thus: Example 43: aubergines treated against Macrosiphum euphorbiae. Conditions: nymphs on leaves, % a.i.: imidacloprid 0.014, I-9, I-2, I-11 0.0144. Here is the method:
In three replications, plots of a size of 10 m^2 with aubergines of the cultivar “F 100” are treated against Macrosiphum euphorbiae. The application is carried out using a knapsack sprayer operated with pressurized air. Here, the active compounds Example (I-9) (60 SC), Example (I-2) (60 SC) and Example (I-11) (60 SC) and the commercial standard imidacloprid (70 WG) are tested at the stated application rates. Three applications are carried out, at an interval of 7 or 8 days. The application rate is 1000 l of water/ha.
Evaluation is carried out 7 and 14 days after the second treatment by rating the kill of the nymphs on the leaves.

For a further assay, the system named is Myzus persicae. In words: Example 50: tomatoes treated against Myzus persicae. The note with it: nymphs on leaves, g a.i./ha: acetamiprid 50, I-9 36, I-4 48. As for the experimental part: In two replications, plots of a size of about 43 m^2 with tomatoes of the cultivar “Yaqui” are treated against Myzus persicae. The application is carried out using a motor-operated knapsack sprayer. Here, the active compounds Example (I-9) (240 SC) and Example (I-4) (240 SC), in a tank mix with 0.1% a.i. of rapeseed oil methyl ester (500 EW), and the standard acetamiprid (20 WP) are applied at the stated application rates. The application rate is 208 l of water/ha.
Evaluation is carried out 3 and 10 days after the treatment by rating the kill of the nymphs on the leaves.

Another assay concerns Pulvinaria aurantii. In words: Example 11: satsuma trees treated against Pulvinaria aurantii. The note with it: 41 days after treatment; live animals counted, Henderson and Tilton; satsuma tree; % a.i.: buprofezin 0.025, I-4 0.0144. As for the experimental part: In three replications, in each case one about 4-year-old satsuma tree of the cultivar “Nankan 20” is treated against Pulvinaria aurantii. Here, the active compound Example (I-4) (240 SC) in a tank mix with 0.2% of rapeseed oil methyl ester (500 EW) at the stated application rate is tested against the commercial standard buprofezin at the stated application rate. The application is carried out using a motor-operated knapsack sprayer. Here, each plant is treated with 400 ml of spray liquor.
(§1) Evaluation is carried out before and 41 days after the treatment by counting the live animals. The efficacy in percent is then calculated according to Henderson and Tilton.

The test system of the next assay is Ceroplastes rubens. In words: Example 12: satsuma trees treated against Ceroplastes rubens. Conditions: 41 days after treatment; live animals counted, Henderson and Tilton; satsuma tree; % a.i.: buprofezin 0.025, I-4 0.0072. As for the experimental part: In three replications, in each case one about 4-year-old satsuma tree of the cultivar “Nankan 20” is treated against Ceroplastes rubens. Here, the active compound Example (I-4) (240 SC) in a tank mix with 0.1% of rapeseed oil methyl ester (500 EW) at the stated application rate is tested against the commercial standard buprofezin (25 WP) at the stated application rate. The application is carried out using a motor-operated knapsack sprayer. Here, treatment is carried out using an application rate of 400 l of water/ha.
as §1

Assay [1] deals with Saissetia oleae. In words: Example 13: orange trees treated against Saissetia oleae. Conditions: nymphs on leaves, g a.i./ha/m crown height: buprofezin 500, I-4 72, I-8 30. Here is the method:
In three replications, in each case two about 8-year-old orange trees are treated against Saissetia oleae. Here, the active compounds Example (I-4) (240 SC) and Example (I-8) (250 SC) in a tank mix with 0.2% a.i. of rapeseed oil methyl ester (500 EW) at the stated application rate are tested against the commercial standard buprofezin in a tank mix with 0.4% a.i. of Oliocin (800 EW) at the stated application rate. The application is carried out using a motor-operated knapsack sprayer. The application rate is 3000 l of water/ha. Two treatments are carried out, at an interval of 29 days.
Evaluation is carried out 24 and 44 days after the last treatment by rating the kill of the nymphs on the leaves.

Assay [2] deals with Selenaspidius articulatus. The assay can be described thus: Example 19: orange trees treated against Selenaspidius articulatus. The note with it: 100 d after treatment, on leaves, % a.i.: methidathion 0.05, I-9 0.0288, I-4 0.0144. Here is the method:
In three replications, 3-year-old orange trees of the cultivar “Pera natal” are treated against Selenaspidius articulatus. The application is carried out using a motor-operated knapsack sprayer. Here, the active compounds Example (I-9) (240 SC) and Example (I-4) (240 SC) at the stated application rate are tested against the standard methidathion (400 EC) in the stated amounts, applied once. The application rate is 3.3 l of water per tree.
Evaluation is carried out 100 days after the treatment by rating the kill on the leaves.

Another assay relates to Orthezia praelonga. In words: Example 25: orange trees treated against Orthezia praelonga. Conditions: population on leaves, % a.i.: methidathion 0.05, I-4 0.0144, I-9 0.0144. Here is the method: In two replications, two about 7-year-old orange trees of the cultivar “Pera Rio” are treated against Orthezia praelonga. Here, the active compounds Example (I-4) (240 SC) and Example (I-9) (240 SC), in a tank mix with 0.1% a.i. of Renex, are tested against the commercial standard Methidathion (400 EC), at the stated application rates. The application is carried out using a knapsack sprayer operated with pressurized air. Evaluation is carried out 6 and 16 days after the treatment by rating the kill of the population on the leaves.

Assay [3] concerns Saissetia oleae. In words: Example 14: orange trees (Navelina) treated against Saissetia oleae. The note with it: 120 d after treatment, kill on branches, % a.i.: Dursban 0.096, I-4 0.012, I-9 0.0054, pyriproxyfen 0.005. Here is the method:
In three replications, orange trees of the cultivar “Navelina” are treated against Saissetia oleae. Here, the active compounds Example (I-4) (240 SC) and Example (I-9) (240 SC) in a tank mix with 0.1% of rapeseed oil methyl ester (500 EW) at the stated application rate are tested against the commercial standards Dursban (480 EC) and pyriproxyfen (100 EC) at the stated application rate. The application is carried out using a motor-operated knapsack sprayer. The application rate is 3200 l of water/ha.
Evaluation is carried out 120 days after the treatment by rating the kill of the animals on the branches.

In a further assay the test system is Lepidosaphes beckii. The assay can be described thus: Example 18: citrus trees treated against Lepidosaphes beckii. The note with it: 140 days after treatment, larvae on fruits, g a.i./ha/m crown height: pyriproxyfen 50, I-4 48. Here is the method:
In three replications, in plots of a size of about 20 m^2, citrus trees of the cultivar “Oro Nules” are treated against Lepidosaphes beckii. The application is carried out using a high-pressure sprayer. Here, the active compound Example (I-4) (240 SC) in a tank mix with 0.1% a.i. of rapeseed oil methyl ester (500 EW) is tested against the commercial standard pyriproxyfen (100 EC), at the stated application rates. The application rate is 2500 l of water/ha.
Evaluation is carried out 140 days after the treatment by rating the kill of the larvae on the fruits.

For a further assay, the system named is Parlatoria pergandei. In words: Example 27 / 18a: orange trees treated against Parlatoria pergandei. The note with it: 73 d after last of two treatments, on fruits, % a.i.: pyriproxyfen 0.005, I-9 0.0096. Here is the method: The evaluation for Example 18a against Parlatoria pergandei is carried out as part of the test as described in Example 27 and is listed separately in Example 27.
(§2) In three replications, orange trees of the cultivar “Navelina” are treated against Parlatoria pergandei and Pseudococcus citri. Two applications are carried out at an interval of 77 days using a motor-operated knapsack sprayer. Here, the active compound Example (I-9) (240 SC), in a tank mix with 0.1% a.i. of rapeseed oil methyl ester (500 EW), at the stated amount, is tested against the commercial standard pyriproxyfen (100 EC), at the stated amounts. The application rate is 3000 l of water/ha.
(§3) Evaluation is carried out 56 days or 73 days after the last treatment by rating the kill in percent on the fruits.

Another assay has as its system Pseudococcus citri. In words: Example 27: orange trees treated against Pseudococcus citri. Conditions: 56 d after last of two treatments, on fruits, % a.i.: pyriproxyfen 0.005, I-9 0.0096. Here is the method: as §2, §3

With `CCCC(=O)OC1=C(c2cc(C)c(C)cc2C)C(=O)NC12CCC(OCC)CC2` (stereo not shown) [Example (I-11)], the “Kill (%) 7 d” value was determined as 85.4% with Bemisia tabaci (7 d after second treatment), 94% in the assay on Bemisia argentifolii and 98% in the assay on Macrosiphum euphorbiae (7 d after second treatment). For the same compound, the results for the “Kill (%) 14 d” value in the assay with Bemisia tabaci (14 d after second treatment) and with Macrosiphum euphorbiae (14 d after second treatment) were 93.3% and 99%, respectively. In addition, the “Kill (%) 22 d” value in the assay on Bemisia tabaci (22 d after second treatment) came to 91.3%.

As for `C/C(=N\C#N)N(C)Cc1ccc(Cl)nc1` [acetamiprid, reference compound], in the assay with Myzus persicae (3 d after treatment), the “Kill (%) 3 d” value was 78.7%. For the same compound, the “Kill (%) 10 d” value in the assay on Myzus persicae (10 d after treatment) came out at 73.5%.

Regarding `CC(C)N1C(=O)N(c2ccccc2)CS/C1=N\C(C)(C)C` [buprofezin, reference compound], the “Effect (%)” value in the assay on Pulvinaria aurantii is listed as 68%; with Ceroplastes rubens, 50%. Further, the “Kill (%) 24 d” value in the assay with Saissetia oleae [1] (24 d after last of two treatments) came out at 33.5%. Moreover, the “Kill (%) 44 d” value with Saissetia oleae [1] (44 d after last of two treatments) is reported as 50.5%.

With `COc1nn(CSP(=S)(OC)OC)c(=O)s1` [methidathion, reference compound], in assay [2], the “Kill (%) 100 d” value stood at 77%. The “Kill (%) 6 d” value in the assay on Orthezia praelonga (6 d after treatment) turned out to be 91%. The “Kill (%) 16 d” value with Orthezia praelonga (16 d after treatment) amounted to 61%.

In the case of `CC(COc1ccc(Oc2ccccc2)cc1)Oc1ccccn1` (stereo not shown) [pyriproxyfen, reference compound], the “Effect (%) 120 d” value in the assay with Saissetia oleae [3] was 100%. Also, in the assay with Lepidosaphes beckii, the “Kill (%) 140 days” value was found to be 100%. The “Kill (%) 73 d” value in the assay with Parlatoria pergandei came to 97.5%. The “Kill (%) 56 d” value with Pseudococcus citri is 28.8%.

These data come from patent US20090012152A1, “Use of Tetramic Acid Derivatives for Controlling Insects from the Genus of the Plane Lice (Sternorrhyncha)” (Bayer CropScience Aktiengesellschaft, priority 2005, published 2009).
